Laboratory results as given in patent publication US12459951B2, “Compounds that interact with RAS superfamily proteins for treatment of cancers, inflammatory diseases, rasopathies, and fibrotic disease” (SHY Therapeutics, LLC, priority 2022, dated 2025).
Structures can show the parent of a compound that is named as a salt.

Key:
[1] = tested on: MAPK p38 phosphorylation; assay: MAPK p38 Activation Assay (western blot), Panc-1; type: cell-based, human; settings: at 10 μM, Panc-1 pancreatic cancer cell line; starred symbols = activation
How it was run: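 Panc-1 cells (KRas G12D) were treated with compound for 6 h at 37 °C, at 10 μM or as serial dilutions for IC50, with 0.3% DMSO. Method 1 used overnight serum-starved cells (0.5% FBS) stimulated with 1.5 ng/ml EGF for 15 min; Method 2 used unstimulated cells in 10% FBS. Phospho-p38 (Thr180/Tyr182) was detected by western blot.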

[2] = molecular target: T1, Rho-A (Homo sapiens, UniProt P61586); assay: Ras GTP Binding Domain Inhibition Assay (Ras Superfamily Assay); settings: read-out: Rho-A: % inh..
T1 construct: made in house
How it was run: (§1)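 Binding of 100 nM fluorescent GTP (Cy3 or Cy5, 45 min, room temperature) was read after washes from plate-captured His-tagged protein. Beforehand, compounds at 20 μM or in dilution series for IC50 sat 3 h on the protein in Tris buffer pH 7.4 or 7.0 with 1% DMSO, Sos GEF optionally added for the last hour.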

[3] = tested on: KRas G12C mutant; assay: as above; settings: 20 μM compound; for KRas G12C mutant + SOS: % inh.: with SOS; for KRas G12C mutant: % inh.: without SOS
How it was run: as §1

[4] = tested on: KRas Q61H mutant; assay: as above; settings: 20 μM compound; for KRas Q61H mutant + SOS: % inh.: with SOS; for KRas Q61H mutant: % inh.: without SOS
How it was run: as §1

T1 sequence (P61586 whole entry, the tested form may be a part): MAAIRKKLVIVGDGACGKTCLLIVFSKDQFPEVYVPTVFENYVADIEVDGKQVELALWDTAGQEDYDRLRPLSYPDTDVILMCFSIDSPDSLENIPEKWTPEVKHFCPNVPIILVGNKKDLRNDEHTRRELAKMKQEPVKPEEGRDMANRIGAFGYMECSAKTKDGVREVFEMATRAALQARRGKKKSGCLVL

SMILES	inhibition at 20 µM [2]	KRas G12C mutant + SOS: % inh. [3]	KRas G12C mutant: % inh. [3]	KRas Q61H mutant + SOS: % inh. [4]	KRas Q61H mutant: % inh. [4]	% inh of MAPK p38 in Panc-1 [1]
COc1cccc(-c2cn3nc(-c4nccn4C)nc(N[C@@H]4CC[C@@H](OC)C4)c3c2-c2ccccc2)c1Cl.Cl (racemic) [Compound 34, rac 6-(2-Chloro-3-methoxyphenyl)-N-((1R,3R)-3-methoxycyclopentyl)-2-(1-methyl-1H-imidazol-2-yl)-5-phenylpyrrolo[2,1-f][1,2,4]triazin-4-amine hydrochloride]	1 to 25%	A (A = 1-25% inhibition)	0 (0 = 0% inhibition)	0 (0 = 0% inhibition)	0 (0 = 0% inhibition)	H (H = 100% inhibition)
COc1cc(Nc2nc(-c3nccn3C)nn3cc(-c4ccn(C(C)C)n4)c(-c4ccccc4)c23)ncn1 [Compound 22, 6-(1-Isopropyl-1H-pyrazol-3-yl)-N-(6-methoxypyrimidin-4-yl)-2-(1-methyl-1H-imidazol-2-yl)-5-phenylpyrrolo[2,1-f][1,2,4]triazin-4-amine]	50 to 75%	A (A = 1-25% inhibition)	B (B = 26-49% inhibition)	A (A = 1-25% inhibition)	B (B = 26-49% inhibition)	H* (H* ≥ 100% activation)
Cc1ccn2nc(-c3nccn3C)nc(N)c12.O=C(O)C(F)(F)F [Compound 37, 5-Methyl-2-(1-methyl-1H-imidazol-2-yl)pyrrolo[2,1-f][1,2,4]triazin-4-amine trifluoroacetic acid salt]	0%	C (C = 50-75% inhibition)	C (C = 50-75% inhibition)	0 (0 = 0% inhibition)	0 (0 = 0% inhibition)	
Cn1ccnc1-c1nc(O)c2c(-c3ccccc3)ccn2n1 [Compound 39, 2-(1-Methyl-1H-imidazol-2-yl)-5-phenylpyrrolo[2,1-f][1,2,4]triazin-4-ol]	0%	A (A = 1-25% inhibition)	B (B = 26-49% inhibition)	0 (0 = 0% inhibition)	A (A = 1-25% inhibition)	
COC1CCCN(c2nc(-c3nccn3C)nn3cc(-c4ccn(C(C)C)n4)c(-c4ccccc4)c23)C1 (racemic) [Compound 21, rac 6-(1-Isopropyl-1H-pyrazol-3-yl)-4-(3-methoxypiperidin-1-yl)-2-(1-methyl-1H-imidazol-2-yl)-5-phenylpyrrolo[2,1-f][1,2,4]triazine]	1 to 25%	0 (0 = 0% inhibition)	0 (0 = 0% inhibition)	A (A = 1-25% inhibition)	0 (0 = 0% inhibition)	H* (H* ≥ 100% activation)
COC[C@@H]1CC[C@@H]1CNc1nc(-c2nccn2C)nn2cc(-c3ccn(C(C)C)n3)c(-c3ccccc3)c12 (racemic) [Compound 20, rac 6-(1-Isopropyl-1H-pyrazol-3-yl)-N-(((1S,2R)-2-(methoxymethyl)cyclobutyl)methyl)-2-(1-methyl-1H-imidazol-2-yl)-5-phenylpyrrolo[2,1-f][1,2,4]triazin-4-amine]	1 to 25%	0 (0 = 0% inhibition)	A (A = 1-25% inhibition)	0 (0 = 0% inhibition)	0 (0 = 0% inhibition)	H* (H* ≥ 100% activation)
COc1cccc(Nc2nc(-c3nccn3C)nn3cc(-c4ccn(C(C)C)n4)c(C)c23)n1 [Compound 7, 6-(1-Isopropyl-1H-pyrazol-3-yl)-N-(6-methoxypyridin-2-yl)-5-methyl-2-(1-methyl-1H-imidazol-2-yl)pyrrolo[2,1-f][1,2,4]triazin-4-amine]	0%	A (A = 1-25% inhibition)	0 (0 = 0% inhibition)	A (A = 1-25% inhibition)	B (B = 26-49% inhibition)	H* (H* ≥ 100% activation)
COCCO[C@H]1C[C@H](Nc2nc(-c3nccn3C)nn3cc(-c4ccn(C(C)C)n4)c(C)c23)C1 [Compound 92, 6-(1-Isopropyl-1H-pyrazol-3-yl)-N-((1r,3r)-3-(2-methoxyethoxy)cyclobutyl)-5-methyl-2-(1-methyl-1H-imidazol-2-yl)pyrrolo[2,1-f][1,2,4]triazin-4-amine]	1 to 25%	0 (0 = 0% inhibition)	0 (0 = 0% inhibition)	A (A = 1-25% inhibition)	0 (0 = 0% inhibition)	
CO[C@H]1CC[C@@H](Nc2nc(-c3nccn3C)nn3cc(-c4ccn(C(C)C)n4)c(-c4ccccc4)c23)C1 (racemic) [Compound 18, rac 6-(1-Isopropyl-1H-pyrazol-3-yl)-N-((1R,3S)-3-methoxycyclopentyl)-2-(1-methyl-1H-imidazol-2-yl)-5-phenylpyrrolo[2,1-f][1,2,4]triazin-4-amine hydrochloride]	1 to 25%	0 (0 = 0% inhibition)	0 (0 = 0% inhibition)	A (A = 1-25% inhibition)	0 (0 = 0% inhibition)	H* (H* ≥ 100% activation)
Cc1c(-c2ccn(C(C)C)n2)cn2nc(-c3nccn3C)nc(Nc3noc(C4CC4)n3)c12 [Compound 75, 5-Cyclopropyl-N-(6-(1-isopropyl-1H-pyrazol-3-yl)-5-methyl-2-(1-methyl-1H-imidazol-2-yl)pyrrolo[2,1-f][1,2,4]triazin-4-yl)-1,2,4-oxadiazol-3-amine]	50 to 75%	A (A = 1-25% inhibition)	A (A = 1-25% inhibition)	B (B = 26-49% inhibition)	A (A = 1-25% inhibition)	

Further lines, with some results ahead:

inhibition at 20 µM [2]	KRas G12C mutant + SOS: % inh. [3]	KRas G12C mutant: % inh. [3]	KRas Q61H mutant + SOS: % inh. [4]	KRas Q61H mutant: % inh. [4]	SMILES	% inh of MAPK p38 in Panc-1 [1]
0%	0 (0 = 0% inhibition)	0 (0 = 0% inhibition)	0 (0 = 0% inhibition)	0 (0 = 0% inhibition)	COC[C@@H]1CC[C@@H]1CNc1nc(-c2nccn2C)nn2cc(-c3ccn(C(C)C)n3)c(C)c12 (racemic) [Compound 3, rac 6-(1-Isopropyl-1H-pyrazol-3-yl)-N-(((1S,2R)-2-(methoxymethyl)cyclobutyl)methyl)-5-methyl-2-(1-methyl-1H-imidazol-2-yl)pyrrolo[2,1-f][1,2,4]triazin-4-amine]	H* (H* ≥ 100% activation)
0%	0 (0 = 0% inhibition)	0 (0 = 0% inhibition)	0 (0 = 0% inhibition)	0 (0 = 0% inhibition)	COCC1CCN(c2nc(-c3nccn3C)nn3cc(-c4ccn(C(C)C)n4)c(C)c23)C1 (racemic) [Compound 2, rac 6-(1-Isopropyl-1H-pyrazol-3-yl)-4-(3-(methoxymethyl)pyrrolidin-1-yl)-5-methyl-2-(1-methyl-1H-imidazol-2-yl)pyrrolo[2,1-f][1,2,4]triazine]	H* (H* ≥ 100% activation)
1 to 25%	A (A = 1-25% inhibition)	0 (0 = 0% inhibition)	B (B = 26-49% inhibition)	0 (0 = 0% inhibition)	COCC1CCN(c2nc(-c3nccn3C)nn3cc(-c4ccn(C(C)C)n4)c(-c4ccccc4)c23)C1.Cl (racemic) [Compound 19, rac 6-(1-Isopropyl-1H-pyrazol-3-yl)-4-(3-(methoxymethyl)pyrrolidin-1-yl)-2-(1-methyl-1H-imidazol-2-yl)-5-phenylpyrrolo[2,1-f][1,2,4]triazine hydrochloride salt]	H* (H* ≥ 100% activation)
0%	0 (0 = 0% inhibition)	0 (0 = 0% inhibition)	0 (0 = 0% inhibition)	0 (0 = 0% inhibition)	CO[C@H]1CC[C@@H](Nc2nc(-c3nccn3C)nn3cc(-c4ccn(C(C)C)n4)c(C)c23)C1 (racemic) [Compound 1, rac 6-(1-Isopropyl-1H-pyrazol-3-yl)-N-((1R,3S)-3-methoxycyclopentyl)-5-methyl-2-(1-methyl-1H-imidazol-2-yl)pyrrolo[2,1-f][1,2,4]triazin-4-amine]	H* (H* ≥ 100% activation)
26 to 49%					COCCNc1nc(-c2nccn2C)nn2cc(-c3ccn(C(C)C)n3)c(C)c12 [Compound 5, 6-(1-Isopropyl-1H-pyrazol-3-yl)-N-(2-methoxyethyl)-5-methyl-2-(1-methyl-1H-imidazol-2-yl)pyrrolo[2,1-f][1,2,4]triazin-4-amine]	
